Biological target: T1, Thioredoxin (Homo sapiens, UniProt P10599)
T1 sequence (P10599 whole entry): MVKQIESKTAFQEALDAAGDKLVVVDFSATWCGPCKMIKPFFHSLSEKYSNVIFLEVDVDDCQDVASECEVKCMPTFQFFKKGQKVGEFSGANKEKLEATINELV
Assay: In vitro Assay
Settings: pH 7.6
Experimental: The method of determining thioredoxin activity is based on the reduction of insulin by thioredoxin. Thioredoxin is reconstituted is by thioredoxin reductase, with NADPH. The resulting free thiol -SH groups react with 5,5′-dithiobis-2-nitrobenzoic acid (DTNB). The termination of the reaction results in the formation of a […]. […] The reaction was performed at 37° C. over 30 min. in a buffer containing 50 mM Tris-HCl and 20 mM EDTA at a pH of 7.6.

C=C(COC(=O)c1c(C(F)(F)F)cccc1C(F)(F)F)C(=O)NCc1ccccc1 [US9018255, 8a]
IC50: 8.6 µM

From BindingDB's records for patent US9018255 (Instytut Chemii Organicznej Polskiej Akademii Nauk, 2015)
